{
  "source": "patent US8697747B2",
  "about": "“Enhancing coagulation or reducing fibrinolysis” (THe UAB Research Foundation, priority 2009, dated 2014)",
  "assay_type_in_all_cases": "biochemical, human",
  "key": {"[1]": {"test_system": "factor VII deficient plasma", "assay": "Thrombelastography, factor VII deficient plasma", "conditions": "100 mmol CORM-2 vs control; FVII deficient plasma, 4 individuals", "experimental": "Plasma deficient (<1% normal activity) in factor VIII (FVIII; 11 individuals), factor IX (FIX; 5 individuals), or factor VII (FVII; 4 individuals) was obtained from anonymous donors (George King Bio-Medical, Overland Park, Kans.) and was anticoagulated with sodium citrate. The final volume for all subsequently described plasma sample mixtures was […]. Sample composition consisted of […] of plasma, […] of tissue factor (0.1% final concentration in 0.9% NaCl; Diagnostica Stago, Asnieres, France), 3.6 mL of dimethyl sulfoxide (DMSO) or DMSO with CORM-2 ([…]; Sigma-Aldrich, St. Louis, Mo.), and 20 mL of […] CaCl2. […] (Motterlini et al. 2005). While CORM-2 decays slowly in DMSO, DMSO was added to the dry compound just prior to placement into the plasma mixture.\nPlasma sample mixtures were placed in a disposable cup in a computer-controlled THROMBELASTOGRAPH® hemostasis system (Model 5000; Haemoscope Corp., Niles, Ill.), with addition of CaCl2 as the last step to initiate clotting. Data were collected until clot strength stabilized (maximum amplitude).\nStatistical analyses. […] A paired student's t-test was used to analyze the effects of CORM-2 exposure in FVIII deficient individuals. The results of the FIX and FVII deficient groups were presented but not statistically analyzed secondary to the small number of individuals in each cohort. […] Statistical analyses and graphical representation of the data were generated with commercially available software (SigmaPlot 11.0; Systat Software Inc., San Jose, Calif.; CorelDRAW 12.0; Corel Corp., Ottawa, Ontario, Canada). A P value of less than 0.05 was considered significant."}, "TAFI deficient plasma": {"test_system": "TAFI deficient plasma", "assay": "CLSM thrombelastography with tPA, TAFI deficient plasma", "conditions": "100 μM CORM-2, tPA 100 IU/mL, median, n=8", "experimental": "(§1) Pooled normal plasma (George King Bio-Medical, Overland Park, Kans.) anticoagulated with sodium citrate was utilized for experimentation. […] Factor XIII (FXIII) deficient plasma anticoagulated with sodium citrate was also obtained from the same vendor.\n(§2) Plasma Sample Composition. The final volume for all subsequently described plasma sample mixtures was 359.4 μL. Sample composition consisted of 316 μL of plasma; 10 μL of tissue factor (0.1% final concentration in 0.9% NaCl; Diagnostica Stago, Asnieres, France), 3.6 μL of dimethyl sulfoxide (DMSO) or DMSO with CORM-2 (Sigma-Aldrich, St. Louis, Mo.) or DMSO with inactivated CORM-2 (iCORM-2), 10 μL of tissue-type plasminogen activator (tPA, 580 U/μg, Genentech, Inc., San Francisco, Calif.) diluted with 10 mM potassium phosphate buffer (pH 7.4) for a final activity of 100 IU/mL, and 20 μL of 200 mM CaCl2. […] This concentration of CORM-2 was chosen because the concentration of CO released would be expected to be in the mid to lower ranges used in previously reported ex vivo, in vitro, and cell-based experiments (Motterlini et al. 2002; Megias et al. 2007; Chlopicki et al. 2006; Dong et al. 2008). […] (Motterlini et al. 2005). While CORM-2 decays slowly in DMSO, DMSO was added to the dry compound just prior to placement into the plasma mixture. The specific series of experiments are subsequently presented.\n(§3) Assessment of the Effects of CORM-2 on CLSM Parameters in FXIII, PAI-1, TAFI and α2-antiplasmin Deficient Plasmas. These experiments were performed to elucidate the roles played by antifibrinolytic enzymes during CORM-2 mediated modulation of fibrinolysis. Samples of the various deficient plasmas were exposed to 0 or 100 μM of CORM-2 (n=8 per condition). Samples underwent CLSM analyses as subsequently described.\n(§4) Clot Lifespan Model Analyses. As described in Example 1, plasma sample mixtures were placed in a disposable cup in a computer-controlled THROMBELASTOGRAPH® hemostasis system (Model 5000, Haemoscope Corp., Niles, Ill.), with addition of CaCl2 as the last step to initiate clotting. Data were collected until clot lysis time occurred. […] As this model involves complete fibrinolysis, TTG is equivalent to ACL, so ACL was not presented as it provides no additional information.\n(§5) Statistical Analyses. Data are presented as median (1st, 3rd quartiles). […] Nonlinear and linear analyses and curve fitting of the various CORM-2 concentrations effects on CLSM variables were performed with commercially available software (SigmaPlot 11.0, Systat Software, Inc., San Jose, Calif.). Analyses of the effects of CORM-2 and iCORM-2 on CLSM variables in normal plasma were conducted with Kruskal-Wallis one way analysis of variance on ranks, whereas Mann-Whitney rank sum tests were used to assess the effects of CORM-2 on CLSM variables in the various immunodepleted/congenitally deficient plasma types (SigmaStat 3.1, Systat Software, Inc., San Jose, Calif.). Graphical representation of the data was generated with commercially available software (SigmaPlot 11.0, Systat Software, Inc., San Jose, Calif.; CorelDRAW 12.0, Corel Corporation, Ottawa, Ontario, Canada; Origin 7.5, OriginLab Corp., Northampton, Mass.). A P value of <0.05 was considered significant."}, "[2]": {"test_system": "α2-antiplasmin deficient plasma", "assay": "CLSM thrombelastography with tPA, α2-antiplasmin deficient plasma", "experimental": "as §1, §2, §3, §4, §5"}, "[3]": {"conditions": "100 μM CORM-2, tPA 100 IU/mL, median, n=8"}},
  "data": [
    {"smiles": "[C-]#[O+].[C-]#[O+].[C-]#[O+].[C-]#[O+].[C-]#[O+].[C-]#[O+].[Cl][Ru][Cl].[Cl][Ru][Cl]", "note": "[CORM-2, tricarbonyldichlororuthenium (II) dimer]", "values": [
      {"measurement": "effect on MRTG", "setting": "[1]", "value": "an increase in MRTG and TTG in all FVII deficient plasma donors"},
      {"measurement": "effect on TMRTG", "setting": "[1]", "value": "an increase in TMRTG in all individuals tested"},
      {"measurement": "effect on TTG", "setting": "[1]", "value": "an increase in MRTG and TTG in all FVII deficient plasma donors"},
      {"measurement": "CGT (clot growth time)", "setting": "TAFI deficient plasma", "value": 410, "unit": "s"},
      {"measurement": "CLS (clot lifespan)", "setting": "TAFI deficient plasma", "value": 370, "unit": "s"},
      {"measurement": "CLT (clot lysis time)", "setting": "TAFI deficient plasma", "value": 932, "unit": "s"},
      {"measurement": "MRL (maximum rate of lysis)", "setting": "TAFI deficient plasma", "value": "−1.4 -dynes/cm^2/sec"},
      {"measurement": "MRTG (maximum rate of thrombus generation)", "setting": "TAFI deficient plasma", "value": 6.1, "unit": "dynes/cm^2/sec"},
      {"measurement": "TMRL (time to maximum rate of lysis)", "setting": "TAFI deficient plasma", "value": 612, "unit": "s"},
      {"measurement": "TMRTG (time to maximum rate of thrombus generation)", "setting": "TAFI deficient plasma", "value": 175, "unit": "s"},
      {"measurement": "TTG (total thrombus generation)", "setting": "TAFI deficient plasma", "value": 142, "unit": "dynes/cm^2"},
      {"measurement": "CGT (clot growth time)", "setting": "[2]; [3]", "value": 188, "unit": "s"},
      {"measurement": "CLS (clot lifespan)", "setting": "[2]; [3]", "value": 378, "unit": "s"},
      {"measurement": "CLT (clot lysis time)", "setting": "[2]; [3]", "value": 190, "unit": "s"},
      {"measurement": "MRL (maximum rate of lysis)", "setting": "[2]; [3]", "value": "−10.0 -dynes/cm^2/sec"},
      {"measurement": "MRTG (maximum rate of thrombus generation)", "setting": "[2]; [3]", "value": 10.1, "unit": "dynes/cm^2/sec"},
      {"measurement": "TMRL (time to maximum rate of lysis)", "setting": "[2]; [3]", "value": 68, "unit": "s"},
      {"measurement": "TMRTG (time to maximum rate of thrombus generation)", "setting": "[2]; [3]", "value": 160, "unit": "s"},
      {"measurement": "TTG (total thrombus generation)", "setting": "[2]; [3]", "value": 231, "unit": "dynes/cm^2"},
      {"measurement": "increase of CLS", "setting": "[2]; 100 μM CORM-2 vs unexposed", "value": 14, "unit": "%"},
      {"measurement": "increase of the velocity of clot formation", "setting": "[2]; 100 μM CORM-2 vs unexposed", "value": 35, "unit": "%"},
      {"measurement": "prolongation of CLT", "setting": "[2]; 100 μM CORM-2 vs unexposed", "value": 23, "unit": "%"}
    ]}
  ]
}
